US6825172B2, “3-descladinosyl-6-O-carbamoyl and 6-O-carbonoyl macrolide antibacterial agents” (Janssen Pharmaceutica, NV, priority 2002, dated 2004)
Converted amounts (≈) assume the structure as drawn.

Tests used:
Experiment in all cases: MIC, microdilution broth method (NCCLS)
Format in all cases: cell-based
E. coli OC2605 = conditions: Escherichia coli, Table 1, 6-Carbamoyl-3-Acyl Macrolide Derivatives, read-out: MIC Values, A: E. coli OC2605
Procedure, shortened: (§1)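 NCCLS M7-A4 broth microdilution: two-fold drug dilutions in cation-adjusted Mueller-Hinton broth, inoculum approximately 5×10^4 CFU/well. Trays incubated at 35 °C for 16-20 hours. MIC read by comparing growth to compound-free growth controls.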

E. faecalis ATCC29212 = conditions: Enterococcus faecalis, Table 1, 6-Carbamoyl-3-Acyl Macrolide Derivatives, read-out: MIC Values, C: E. faecalis ATCC29212
Procedure, shortened: as §1

H. influenzae ATCC49247 = conditions: Haemophilus influenzae, Table 1, 6-Carbamoyl-3-Acyl Macrolide Derivatives, read-out: MIC Values, E: H. influenzae ATCC49247
Procedure, shortened: as §1

S. aureus ATCC29213 = conditions: Staphylococcus aureus, Table 1, 6-Carbamoyl-3-Acyl Macrolide Derivatives, read-out: MIC Values, B: S. aureus ATCC29213
Procedure, shortened: as §1

S. pneumoniae ATCC49619 = conditions: Streptococcus pneumoniae, Table 1, 6-Carbamoyl-3-Acyl Macrolide Derivatives, read-out: MIC Values, D: S. pneumoniae ATCC49619
Procedure, shortened: as §1

| Compound | MIC (E. coli OC2605) | MIC (E. faecalis ATCC29212) | MIC (H. influenzae ATCC49247) | MIC (S. aureus ATCC29213) | MIC (S. pneumoniae ATCC49619) |
| --- | --- | --- | --- | --- | --- |
| CC[C@H]1OC(=O)[C@H](C)[C@@H](OC(=O)Cc2ccccn2)[C@H](C)[C@@H](O[C@@H]2O[C@H](C)C[C@H](N(C)C)[C@H]2O)[C@](C)(OC(=O)NC/C=C/C=C/c2cccnc2)C[C@@H](C)C(=O)[C@H](C)[C@H]2NC(=O)O[C@@]21C [Compound 25, 2-Pyridineacetic acid, (3aS,4R,7R,8S,9S,10R, 11R,13R,15R,15aR)-4-ethyltetradecahydro-3a,7,9,11,13,15-hexamethyl-2,6,14-trioxo-11-[[[[(2E,4E)-5-(3-pyridinyl)-2,4-pentadienyl]amino]carbonyl]oxy]-10-[[3,4,6-trideoxy-3-(dimethylamino)-β-D-xylo-hexopyranosyl]oxy]-2H-oxacyclotetradecino[4,3-d]oxazol-8-yl ester] | 8 µg/mL (≈ 8.83 µM) | 0.25 µg/mL (≈ 0.276 µM) | 2 µg/mL (≈ 2.21 µM) | 0.5 µg/mL (≈ 0.552 µM) | 0.03 µg/mL (≈ 0.0331 µM) |
| CC[C@H]1OC(=O)[C@H](C)[C@@H](OC(=O)C(C)C)[C@H](C)[C@@H](O[C@@H]2O[C@H](C)C[C@H](N(C)C)[C@H]2O)[C@](C)(OC(=O)NC/C=C/C=C/c2ccccn2)C[C@@H](C)C(=O)[C@H](C)[C@H]2NC(=O)O[C@@]21C [Compound 26] | 16 µg/mL (≈ 18.7 µM) | 0.25 µg/mL (≈ 0.292 µM) | 2 µg/mL (≈ 2.33 µM) | 1 µg/mL (≈ 1.17 µM) | 0.06 µg/mL (≈ 0.07 µM) |
